{"source": "patent US8071654B2", "about": "“Inhibitors of thromboxane formation and action” (priority 2000, dated 2011)", "key": {"platelet TP receptor": {"target": "T1, platelet TP receptor (Homo sapiens, UniProt P21731)", "T1 construct": "endogenous in cells; host or cells: washed human platelets", "T1 sequence (P21731 1-343)": "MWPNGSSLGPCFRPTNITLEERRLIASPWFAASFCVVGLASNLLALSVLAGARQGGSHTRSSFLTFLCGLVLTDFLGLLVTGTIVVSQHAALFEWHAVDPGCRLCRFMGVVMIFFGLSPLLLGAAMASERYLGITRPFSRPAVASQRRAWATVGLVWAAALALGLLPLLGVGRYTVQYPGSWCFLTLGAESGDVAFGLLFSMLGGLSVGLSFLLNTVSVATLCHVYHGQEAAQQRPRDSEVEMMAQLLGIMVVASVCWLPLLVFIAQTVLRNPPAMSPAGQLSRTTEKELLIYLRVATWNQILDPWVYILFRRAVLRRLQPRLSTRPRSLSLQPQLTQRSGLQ", "test": "binding of 125I-BOP to platelets", "description": "Washed platelets were prepared as described above, except that the platelet suspension was made up at a concentration of 10×10^6 cells/0.5 ml. The binding assay involved the addition of radioligand (30,000 cpm ^125I-BOP) to all tubes in triplicate, and either various doses of unlabeled I-BOP (10^−9-10^−7 M), PBT-3 (10^−9-10^−7 M) or U46619 (10^−9-10^−7 M) in 1 μl ethanol. Additional tubes containing excess unlabeled I-BOP were included to assess the extent of non-specific binding."}, "12-LOX": {"target": "T2, 12-LOX (Homo sapiens, UniProt P18054)", "T2 construct": "endogenous in cells; host or cells: washed human platelets", "T2 sequence (P18054 1-663)": "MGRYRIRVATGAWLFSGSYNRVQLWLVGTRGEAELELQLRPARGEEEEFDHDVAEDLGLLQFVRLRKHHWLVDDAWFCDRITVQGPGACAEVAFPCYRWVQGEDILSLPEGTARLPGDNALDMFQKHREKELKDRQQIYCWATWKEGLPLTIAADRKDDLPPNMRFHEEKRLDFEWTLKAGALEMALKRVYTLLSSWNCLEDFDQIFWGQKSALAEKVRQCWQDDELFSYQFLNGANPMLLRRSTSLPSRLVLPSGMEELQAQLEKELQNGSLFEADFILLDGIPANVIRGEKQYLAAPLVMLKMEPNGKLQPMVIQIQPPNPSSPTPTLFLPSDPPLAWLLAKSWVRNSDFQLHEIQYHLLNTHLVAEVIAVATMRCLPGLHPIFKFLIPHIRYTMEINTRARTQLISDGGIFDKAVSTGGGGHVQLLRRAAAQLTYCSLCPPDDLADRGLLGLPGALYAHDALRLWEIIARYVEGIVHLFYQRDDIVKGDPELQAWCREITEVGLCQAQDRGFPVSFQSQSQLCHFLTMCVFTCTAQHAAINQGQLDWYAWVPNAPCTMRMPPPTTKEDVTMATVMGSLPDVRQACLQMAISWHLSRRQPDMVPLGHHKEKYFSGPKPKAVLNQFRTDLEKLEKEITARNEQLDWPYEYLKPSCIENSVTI", "test": "12-HETE formed in collagen-treated washed human platelets (12-LOX), HPLC", "type": "cell-based", "settings": "for 12-LOX enzyme activity (% of control values, mean ± SD): n = 3", "description": "0.5 ml of platelet suspension was added to siliconized glass tubes (four at a time) and heated with magnetic stirring to 37° for 1 min in a platelet aggregometer (PAP-4C). Either vehicle alone (ethanol, 1 μl) or hepoxilin analog was then added, followed two min later by agonist (collagen: 2 μg; PGH2: 100 ng/0.5 ml; U46619: 10 ng/0.5 ml or I-BOP: 2 ng/0.5 ml). The response was recorded for the next 5 min. In experiments where analysis of TxB2 and HHT were to be made by HPLC, the platelet suspension at the end of the experiment was diluted with ethyl acetate, 100 ng of prostaglandin B1 was added as internal standard, and the mixture was acidified to pH 3 with 0.1 N HCl. After centrifugation, the organic layer was separated, washed twice with water to neutrality, and evaporated to dryness. Half of the sample was taken and was resuspended in 1 ml ethyl acetate containing 20 μg ADAM reagent, and was left in the dark for 2 h (38). The solvent was then evaporated and the residue was acetylated with a solution of pyridine/acetic anhydride (3/1, v/v) during 16 h at 23°. The reagents were evaporated to dryness and the residue was resuspended in acetonitrile/water for HPLC analysis. In experiments where the conversion of tritiated PGH2 was to be monitored, the procedure described above was repeated with tritiated PGH2 instead of unlabeled PGH2. After extraction of the sample as described above, the radiolabeled compounds were analyzed by TLC. Dose response curves for varying amounts of test compounds were generated and the data expressed as % inhibition of collagen-induced platelet aggregation. Each point was investigated 5 times and statistical analysis of the data was carried out using Macintosh Statview statistical software.\nMeasurement of eicosanoids formed by platelets during treatment with collagen or the TP receptor agonists in the presence or absence of PBT-3 was carried out by HPLC after appropriate derivatization with a fluorescent tag (anthracyl diazomethane—ADAM) which forms a fluorescent ester (44). The method was adapted to measure the following compounds: TxB2, HHT, 12-HETE and M. The platelet suspension at the end of the experiment was mixed with ethyl acetate, 100 ng of prostaglandin B1 was added as internal standard and the mixture was acidified to pH 3 with 0.1 N HCl. After centrifugation, the organic layer was separated, washed twice with water to neutrality, and evaporated to dryness. The residue was resuspended in ethyl acetate and half of the sample was taken. It was diluted to 0.2 ml with ethyl acetate containing 20 μg ADAM reagent, and was left in the dark for 2 h. The solvent was then evaporated and the residue was acetylated with a solution of pyridine/acetic anhydride (3/1, v/v) for 16 h at 23°. The reagents were evaporated to dryness and the residue was resuspended in acetonitrile/water for HPLC analysis. Dose response curves for varying amounts of test compounds were generated and the data were expressed as % inhibition of agonist-induced platelet aggregation. Each point was investigated 3 times and statistical analysis of the data was carried out using Macintosh Statview statistical software.\nAnalysis of the anthryl (ADAM)-acetate derivative of TxB2, HHT and 12 HETE in the extracted platelet samples was carried out on a Hewlett Packard (1100 series) HPLC to which was attached a Shimadzu fluorescent detector (RF-10AXL). The detector was operated with excitation at 364 nm, emission at 411 nm. […]"}}, "note": "pIC50: −log10 of the molar value.", "data": [{"smiles": "CCCCC/C=C\\CC1CC1[C@@H](O)/C=C\\C/C=C\\CCCC(=O)OC", "note": "(stereo partly drawn) [PBT-3, 10(S)-hydroxy-11,12-cyclopropyl-eicosa-5Z,8Z,14Z-trienoic acid methyl ester]", "values": [{"measurement": "fold less active than I-BOP in competing with 125I-BOP binding", "setting": "platelet TP receptor", "result": "about 16 fold"}, {"measurement": "pIC50", "setting": "platelet TP receptor; 10×10^6 cells/0.5 ml, read-out: IC50 for competition with 125I-BOP binding to platelets", "result": 8.09}, {"measurement": "12-LOX enzyme activity (% of control values, mean ± SD)", "setting": "12-LOX; PBT-3 0.05 μM", "result": "79.4 ± 7.6 % of control"}, {"measurement": "12-LOX enzyme activity (% of control values, mean ± SD)", "setting": "12-LOX; PBT-3 0.30 μM", "result": "85.2 ± 7.4^NS % of control"}, {"measurement": "12-LOX enzyme activity (% of control values, mean ± SD)", "setting": "12-LOX; PBT-3 0.60 μM", "result": "73.0 ± 4.9 % of control"}, {"measurement": "12-LOX enzyme activity (% of control values, mean ± SD)", "setting": "12-LOX; PBT-3 3.00 μM", "result": "102.5 ± 5.7^NS % of control"}, {"measurement": "inhibition of 12-LOX, in words", "setting": "12-LOX; relatively large amounts of PBT-3, about 3-4 log doses greater than required to inhibit the TP receptor", "result": "Neither COX-1, COX-2,12-LOX nor Plase A2 was inhibited"}]}]}
